Data on 5 compounds can be found in US6737441B2, “Treatment of helicobacter with isothiocyanates” (priority 2000, dated 2004).

For assay [1] the following is noted: in cell culture; cited from earlier work.
Assay [2] relates to clarithromycin and/or metronidazole - intermediate or resistant strains of Helicobacter pylori. Description: Bacteriostatic activity (MIC) against intermediate or resistant strains. It counts as cell-based. To be noted: Helicobacter pylori, read-out: MIC.
Assay [3] deals with amoxicillin/clarithromycin/metronidazole - susceptible strains of Helicobacter pylori. Nature of the assay: Bacteriostatic activity (MIC) against susceptible strains. Type of assay: cell-based. To be noted: Helicobacter pylori, read-out: MIC.

Structures are written as SMILES. Converted amounts (≈) assume the structure as drawn. Read-outs that look alike come from different tables or passages of the source.

Turning to `CSCCCN=C=S` [iberverin], the “activity as inducers relative to sulforaphane and sulforaphene” value in assay [1] is on record as “less active”.
As a reminder, the MIC is the least concentration at which growth counts as inhibited. On to `CC1(C)S[C@@H]2[C@H](NC(=O)[C@H](N)c3ccc(O)cc3)C(=O)N2[C@H]1C(=O)O` [Amoxicillin], for which the MIC in assay [2] (H. pylori strain no 33), in assay [2] (H. pylori strain no 35), in assay [2] (H. pylori strain no 36), in assay [2] (H. pylori strain no 37), in assay [2] (H. pylori strain no 39) and in assay [2] (H. pylori strain no 40) was 0.06 µg/mL (≈ 0.164 µM) in each case. Further, the MIC in assay [2] (H. pylori strain no 41), in assay [2] (H. pylori strain no 42), in assay [2] (H. pylori strain no 43), in assay [2] (H. pylori strain no 44), in assay [2] (H. pylori strain no 45) and in assay [2] (H. pylori strain no 46) was 0.06 µg/mL (≈ 0.164 µM) throughout. The minimal inhibitory concentration (MIC) in assay [2] (H. pylori strain no 47), in assay [3] (H. pylori strain no 1), in assay [3] (H. pylori strain no 2), in assay [3] (H. pylori strain no 3), in assay [3] (H. pylori strain no 4) and in assay [3] (H. pylori strain no 5) was 0.06 µg/mL (≈ 0.164 µM) each time. The MIC in assay [3] (H. pylori strain no 6), in assay [3] (H. pylori strain no 7), in assay [3] (H. pylori strain no 8), in assay [3] (H. pylori strain no 10), in assay [3] (H. pylori strain no 11) and in assay [3] (H. pylori strain no 12) was 0.06 µg/mL (≈ 0.164 µM) throughout. In addition, the MIC in assay [3] (H. pylori strain no 13), in assay [3] (H. pylori strain no 14), in assay [3] (H. pylori strain no 15), in assay [3] (H. pylori strain no 16), in assay [3] (H. pylori strain no 17) and in assay [3] (H. pylori strain no 18) was 0.06 µg/mL (≈ 0.164 µM) each time. Also, the MIC in assay [3] (H. pylori strain no 19), in assay [3] (H. pylori strain no 20), in assay [3] (H. pylori strain no 22), in assay [3] (H. pylori strain no 23), in assay [3] (H. pylori strain no 24) and in assay [3] (H. pylori strain no 25) was 0.06 µg/mL (≈ 0.164 µM) throughout. Also, the MIC in assay [3] (H. pylori strain no 26), in assay [3] (H. pylori strain no 27), in assay [3] (H. pylori strain no 28), in assay [3] (H. pylori strain no 30), in assay [3] (H. pylori strain no 31) and in assay [3] (H. pylori strain no 32) was 0.06 µg/mL (≈ 0.164 µM) in each case.
For the compound `C[S+]([O-])CCCN=C=S` (stereo not shown) [iberin], the “activity as inducers relative to sulforaphane and sulforaphene” value in assay [1] was “less active”.
Regarding `C[S+]([O-])CCCCCN=C=S` (stereo not shown) [alyssin], the “activity as inducers relative to sulforaphane and sulforaphene” value in assay [1] is reported as “less active”.
As for `CSCCCCCN=C=S` [Bertoin], in assay [1], the “activity as inducers relative to sulforaphane and sulforaphene” value is “less active”.
